For data set [1], the system named is alphaviruses. Nature of the data set: organism not typed. It is filed as cell-based.
Data set [2] concerns alphaviruses. It is filed as cell-based.
Data set [3] relates to CHIKV. Nature of the data set: Infectious virus titres in CHIKV-infected AG129 mice. It is filed as in vivo.
The subject of data set [4] is CHIKV. Nature of the data set: CHIKV-induced foot swelling in AG129 mice. It is filed as in vivo.
For data set [5] the following is noted: mouse, in vivo.
In data set [6] the test system is CHIKV. Nature of the data set: Viral RNA levels in CHIKV-infected AG129 mice. The format is in vivo. As to conditions: day 3 pi.
Data set [7] relates to CHIKV. Nature of the data set: CPE reduction assay, CHIKV in skin fibroblasts. The format is cell-based, chikungunya virus. To be noted: read-out: EC50 CHIKV.
Data set [8] has as its system CHIKV. Nature of the data set: CPE reduction assay, CHIKV in Vero cells. It is filed as cell-based, chikungunya virus. As to conditions: read-out: EC50 CHIKV.
Data set [9] deals with SFV. Nature of the data set: microbe, parasite or virus in culture. The format is cell-based. As to conditions: Semliki Forest virus, Vero, 72 h, read-out: EC50 SFV.
Data set [10] has as its system CHIKV. To be noted: SOF 40-80 mg/kg/day; cited from earlier work.
The nature of data set [11]: in vitro. As to conditions: human.
The test system of data set [12] is SFV. Nature of the data set: microbe, parasite or virus in culture. The format is cell-based. As to conditions: Semliki Forest virus, Skin fibroblast, 72 h, read-out: EC50 SFV.
Data set [13] has as its system RRV. Nature of the data set: microbe, parasite or virus in culture. It is filed as cell-based. To be noted: Ross River virus, Vero, 72 h, read-out: EC50 RRV.
The test system of data set [14] is VEEV TC83. Nature of the data set: microbe, parasite or virus in culture. As to conditions: for EC50: Venezuelan equine encephalitis virus, Huh-7, 72 h, read-out: EC50 VEEV TC83. It is filed as cell-based, Venezuelan Equine Encephalitis virus.
Data set [15] is described as follows: in vitro. To be noted: African green monkey.
For data set [16], the system named is alphaviruses (CHIKV, SFV, SINV-HRsp, SINV-AR86, VEEV TC83 and RRV). Nature of the data set: microbe, parasite or virus in culture. The format is cell-based.
A short description of data set [17]: in vitro. To be noted: human. The source holds these as a separate data set.
Data set [18] deals with CHIKV. To be noted: SOF 20 mg/kg/day; cited from earlier work.
Data set [19] has as its system SINV HRsp. Nature of the data set: microbe, parasite or virus in culture. The format is cell-based, Sindbis virus. To be noted: for EC50: Sindbis virus, Huh-7, 72 h, read-out: EC50 SINV HRsp.
In data set [20] the test system is VEEV TC83. Nature of the data set: microbe, parasite or virus in culture. It is filed as cell-based. To be noted: Venezuelan equine encephalitis virus, Vero, 72 h, read-out: EC50 VEEV TC83.
Data set [21] relates to RRV. Nature of the data set: microbe, parasite or virus in culture. The format is cell-based. As to conditions: Ross River virus, Skin fibroblast, 72 h, read-out: EC50 RRV.
In data set [22] the test system is SINV HRsp. Nature of the data set: microbe, parasite or virus in culture. It is filed as cell-based. As to conditions: Sindbis virus, Vero, 72 h, read-out: EC50 SINV HRsp.
Data set [23] has as its system SINV AR86. Nature of the data set: microbe, parasite or virus in culture. It is filed as cell-based, Sindbis virus. To be noted: for EC50: Sindbis virus, Huh-7, 72 h, read-out: EC50 SINV AR86.
Data set [24] deals with SINV AR86. Nature of the data set: microbe, parasite or virus in culture. To be noted: Sindbis virus, Vero, 72 h, read-out: EC50 SINV AR86. The format is cell-based.
Setting [25] is: MPV 10, 50, 100 mg/kg, day 3 pi.
Setting [26] is: combination study, day 2 pi, MPV 10 mg/kg, SOF 80 mg/kg or both (80 + 10 mg/kg), oral.
[27] abbreviates: Chikungunya virus, Skin fibroblast, 72 h.

SMILES strings stand for the structures. Like-named read-outs stand apart in the source and are kept apart here.

The EC50 is the concentration at which the effect is half-maximal.

`CC(C)C(=O)OC[C@H]1O[C@@H](n2ccc(NO)nc2=O)[C@H](O)[C@@H]1O` [MPV, Molnupiravir]: the “EC50 values against all alphaviruses tested (in words)” value in the data set on alphaviruses [1] was “sub to low single-digit micromolar range”. Besides, the “EC50 values, pan-alphavirus (in words)” value with alphaviruses [2] is “sub to low single-digit micromolar range”. Besides, the “infectious virus in contralateral ankle (in words)” value with CHIKV [3] (setting [25]) is “dose-dependent decreases”. The “infectious virus in serum (in words)” value with CHIKV [3] (setting [25]) was “dose-dependent decreases”. In addition, the “infectious CHIKV in serum (in words)” value in the data set with CHIKV [3] (MPV all doses (10, 50, 100 mg/kg), day 2 pi) is on record as “suppressed infectious CHIKV”. Besides, the “reduction of infectious virus titres in serum” value in the data set with CHIKV [3] (combination study, day 3 pi, MPV 10 mg/kg, SOF 80 mg/kg or both) stood at 1 log10 TCID50/mL. Also, the “infectious virus in left ankle (in words)” value with CHIKV [3] (highest dose of MPV, day 3 pi) is listed as “significant decreases”. In the data set on CHIKV [4] (MPV 10 mg/kg oral twice daily, dose-response study), the “effect on foot swelling (in words)” value is on record as “did not significantly improve swelling”. Moreover, the “reduction of foot swelling compared to vehicle” value with CHIKV [4] (MPV 50 mg/kg oral twice daily, day 2 pi) is 22%; in the data set with CHIKV [4] (MPV 50 mg/kg oral twice daily, day 3 pi), 55%; in the data set on CHIKV [4] (MPV 100 mg/kg oral twice daily, day 2 pi), 20%; in the data set on CHIKV [4] (MPV 100 mg/kg oral twice daily, day 3 pi), 62%; in the data set on CHIKV [4] (setting [26]), 19%. In addition, the tolerability entry in [5] is “well-tolerated”. Further, the “viral RNA in contralateral ankle (in words)” value with CHIKV [6] (MPV 10, 50, 100 mg/kg) is listed as “dose-dependent decreases”. Besides, the “viral RNA in serum (in words)” value in the data set on CHIKV [6] (MPV 10, 50, 100 mg/kg) is reported as “significantly reduced”. Further, the “viral RNA in left ankle (in words)” value in the data set with CHIKV [6] (highest dose of MPV) was “significant decreases”.
For `O=c1nc(NO)ccn1[C@@H]1O[C@H](CO)[C@@H](O)[C@H]1O` [EIDD-1931], the EC50 was determined as 0.9 µM with CHIKV [7] (Skin fibroblasts, 72 h pi, MTS) and 0.7 µM in the data set on CHIKV [8] (Vero cells, 72 h pi, MTS). In addition, the CC50 in the data set on Vero cells was above 200 µM; with Huh7 cells, 22 ± 11 µM; in the data set on Human skin fibroblasts, 140 ± 19 µM.
For `CC(C)OC(=O)[C@H](C)N[P@](=O)(OC[C@H]1O[C@@H](n2ccc(=O)[nH]c2=O)[C@](C)(F)[C@@H]1O)Oc1ccccc1` [SOF, Sofosbuvir], the EC50 in the data set on SFV [9] is above 100 µM; in the data set on CHIKV [7] (setting [27]), 15 ± 3 µM; in the data set with SFV [12], 17 ± 3 µM; with RRV [13], above 100 µM; with VEEV TC83 [14], above 50 µM; in the data set on alphaviruses [1] (Skin fibroblast, read-out: EC50 values against all alphaviruses tested), 12 to 20 µM. For the same molecule, the EC50 was 44 ± 3 µM with SINV HRsp [19]; above 100 µM in the data set with VEEV TC83 [20]; 20 ± 7 µM with RRV [21]; above 100 µM in the data set on SINV HRsp [22]; above 50 µM in the data set with SINV AR86 [23]; above 100 µM in the data set on CHIKV [8] (Chikungunya virus, Vero, 72 h). For the same molecule, the survival result with CHIKV [10] is “improved survival”. Also, the CC50 in the data set “in vitro [11]” came out at 271 ± 95 µM; in the data set “in vitro [15]”, 350 ± 14 µM; in “in vitro [17]”, 280 ± 13 µM. Besides, the “antiviral activity against VEEV TC83 (in words)” value with VEEV TC83 [14] was “did not inhibit”. Moreover, the antiviral activity result in data set [16] is “no antiviral activity”. For the same molecule, the foot swelling entry in the data set with CHIKV [18] was “slightly reduced”. For the same molecule, the “reduction of viral RNA in the joint” value with CHIKV [18] is given as below 1 log gc/ml. For the same molecule, the “effect on foot swelling (in words)” value in the data set with CHIKV [4] (SOF 40 and 80 mg/kg oral twice daily, over the course of the infection) is recorded as “did not significantly improve”. The “reduction of foot swelling compared to vehicle” value is 25% in the data set with CHIKV [4] (setting [26]) and “no reduction” in the data set with CHIKV [4] (combination study, day 3 pi, MPV 10 mg/kg, SOF 80 mg/kg or both (80 + 10 mg/kg), oral). Also, the “antiviral activity against SINV AR86 (in words)” value in the data set with SINV AR86 [23] is “did not inhibit”.
Regarding `NC(=O)c1nc(F)c[nH]c1=O` [FAV, favipiravir], the half-maximal effective concentration (EC50) with SFV [9] was 33 ± 6 µM; in the data set with CHIKV [7] (setting [27]), 143 ± 5 µM; in the data set on SFV [12], 382 µM; in the data set on RRV [13], 15 ± 12 µM; in the data set on VEEV TC83 [14], 112 µM; in data set [16] (Chikungunya virus, Vero, read-out: EC50 values against all alphaviruses tested) it was 13 to 52 µM. Besides, the EC50 was 22 ± 7 µM in the data set on SINV HRsp [19]; 13 µM with VEEV TC83 [20]; above 200 µM in the data set with RRV [21]; 52 ± 18 µM with SINV HRsp [22]; 29 ± 18 µM with SINV AR86 [23]; 17 ± 2 µM with SINV AR86 [24]. In addition, the EC50 in the data set with CHIKV [8] (Chikungunya virus, Vero, 72 h) was 35 ± 14 µM. In addition, the figures for the CC50 in “in vitro [11]”, in the data set “in vitro [15]” and in the data set “in vitro [17]” were above 500 µM, 374 ± 17 µM and above 500 µM, respectively. The “antiviral activity against VEEV TC83 (in words)” value with VEEV TC83 [14] is recorded as “active”. Moreover, the “antiviral efficacy (in words)” value in the data set on alphaviruses [1] is recorded as “only effective against CHIKV”. Also, in the data set on SINV HRsp [19], the “antiviral activity against SINV HRsp (in words)” value is reported as “active”. The “antiviral activity against SINV AR86 (in words)” value in the data set with SINV AR86 [23] is on record as “active”.

Values taken from PMC11785157 (bioRxiv, 2025).
